Data set [1] can be described thus: Pesticide residue on hemp flower after ozone treatment (AOAC official method 2007.01). The note with it: for Sample 1: residue on pesticide treated hemp exposed to ozone / Sample 2: residue on pesticide treated hemp exposed to ozone / Sample 3: residue on pesticide treated hemp exposed to ozone: 200 ppm ozone for 20 minutes; for average reduction of pesticide across the three samples tested: hemp, 20 minutes at 200 ppm ozone; for Control: residue on pesticide treated hemp not exposed to ozone: no ozone exposure. It is filed as physicochemical. How it is done: The ability of ozone to reduce pesticide residue using an embodiment of a disclosed pathogen reduction device was evaluated. In this series of experiments, Myclobutanil and Bifenazate were purchased in liquid formulations (Myclobutanil at 19.7% from Dow AgroSciences as Eagle® 20EW and Bifenazate at 22.6% from Chemtura Corporation as Floramite® SC). The pesticides were sprayed on homogenized hemp flower and air dried. Dried hemp flower with pesticide was then exposed to treatment with 200 ppm of ozone for 20 minutes. Non pesticide treated hemp, pesticide treated hemp, and pesticide treated hemp that was exposed to ozone were analyzed by spectrometry using AOAC official method 2007.01. The results are disclosed below in Table 3 were Matrix Blank is non pesticide treated hemp (negative control), Control is pesticide treated hemp that was not exposed to ozone, and Sample 1, Sample 2, and Sample 3 are three samples of pesticide treated hemp that was exposed to ozone at 200 ppm for 20 minutes.

A short description of data set [2]: Cannabinoid and terpene content of cannabis flower before and after ozone exposure. It is filed as physicochemical. The conditions noted are these: for % Change (decrease): 60 minute exposure to 200 ppm of ozone vs before; for % After Ozone Exposure (60 minutes): content of cannabis flower after 60 minute exposure to 200 ppm of ozone; for % Before Ozone Exposure (0 minutes): content of cannabis flower before exposure. How it is done: Cannabinoid and terpene content of cannabis flower was measured before exposure to 200 ppm of ozone in an embodiment of a disclosed pathogen reduction device and after a 60 minute exposure. The results are disclosed in Table 7 by the different cannabinoids and terpenes measured.

Molecules are shown by their SMILES.

For `COc1ccc(-c2ccccc2)cc1NNC(=O)OC(C)C` [Bifenazate], in data set [1], the “Sample 1: residue on pesticide treated hemp exposed to ozone” value is 0.28 mg/kg, the “Sample 2: residue on pesticide treated hemp exposed to ozone” value is recorded as 0.21 mg/kg, the “Sample 3: residue on pesticide treated hemp exposed to ozone” value was 0.22 mg/kg and the “average reduction of pesticide across the three samples tested” value was 0.1 ppm. Further, the “Control: residue on pesticide treated hemp not exposed to ozone” value in data set [1] is 0.34 mg/kg.

Turning to `CCCCCc1cc2c(c(O)c1C(=O)O)C=CC(C)(CCC=C(C)C)O2` (stereo not shown) [CBCA], in data set [2], the “% Change (decrease)” value is given as 0.28%, the “% After Ozone Exposure (60 minutes)” value is given as 0.102% and the “% Before Ozone Exposure (0 minutes)” value was determined as 0.105%.

With `C=C(C)[C@@H]1CCC(C)=C[C@H]1c1c(O)cc(CCCCC)c(C(=O)O)c1O` [CBDA], in data set [2], the “% Change (decrease)” value was found to be 5.4%, the “% After Ozone Exposure (60 minutes)” value amounted to 0.035% and the “% Before Ozone Exposure (0 minutes)” value was determined as 0.037%.

As for `CCCCCc1cc(O)c(C/C=C(\C)CCC=C(C)C)c(O)c1C(=O)O` [CBGA], in data set [2], the “% Change (decrease)” value is 13.4%, the “% After Ozone Exposure (60 minutes)” value is 0.552% and the “% Before Ozone Exposure (0 minutes)” value is reported as 0.638%.

As to `CCCCCc1cc2c(c(O)c1C(=O)O)-c1cc(C)ccc1C(C)(C)O2` [CBNA], in data set [2], the “% Change (decrease)” value is listed as 0.04%, the “% After Ozone Exposure (60 minutes)” value was 0.0458% and the “% Before Ozone Exposure (0 minutes)” value came out at 0.046%.

As for `CCCCC(C#N)(Cn1cncn1)c1ccc(Cl)cc1` (stereo not shown) [Myclobutanil], in data set [1], the “Sample 1: residue on pesticide treated hemp exposed to ozone” value is 0.39 mg/kg, the “Sample 2: residue on pesticide treated hemp exposed to ozone” value is 0.28 mg/kg, the “Sample 3: residue on pesticide treated hemp exposed to ozone” value is on record as 0.28 mg/kg and the “average reduction of pesticide across the three samples tested” value amounted to 0.18 ppm. Also, the “Control: residue on pesticide treated hemp not exposed to ozone” value in data set [1] was determined as 0.5 mg/kg.

In the case of `CCCCCc1cc2c(c(O)c1C(=O)O)[C@@H]1C=C(C)CC[C@H]1C(C)(C)O2` [THCA], in data set [2], the “% Change (decrease)” value is on record as 7.1%, the “% After Ozone Exposure (60 minutes)” value is reported as 15.7% and the “% Before Ozone Exposure (0 minutes)” value came to 16.9%.

`CCCc1cc2c(c(O)c1C(=O)O)[C@@H]1C=C(C)CC[C@H]1C(C)(C)O2` [THCVA]: in data set [2], the “% Change (decrease)” value worked out at 1.2%, the “% After Ozone Exposure (60 minutes)” value is given as 0.076% and the “% Before Ozone Exposure (0 minutes)” value was determined as 0.077%.

Turning to `CCCCCc1cc(O)c2c(c1)OC(C)(C)[C@@H]1CCC(C)=C[C@@H]21` [THC], in data set [2], the “% Change (decrease)” value amounted to 9.2%, the “% After Ozone Exposure (60 minutes)” value is 0.680% and the “% Before Ozone Exposure (0 minutes)” value was 0.749%.

For the origin of these results see patent US10757944B2, “Ozone treatment for elimination of pathogens” (priority 2016, dated 2020).
